Measured values: publication PMC12048553, “Labels as a feature: Network homophily for systematically annotating human GPCR drug-target interactions” (Nature Communications, 2025)

Target: CHRM3 (Homo sapiens, UniProt P20309)
Assay: yeast-expressed receptor NanoLuc screen at […], |Z-score| […]
Assay type: cell-based

Chain of CHRM3 (P20309 whole entry): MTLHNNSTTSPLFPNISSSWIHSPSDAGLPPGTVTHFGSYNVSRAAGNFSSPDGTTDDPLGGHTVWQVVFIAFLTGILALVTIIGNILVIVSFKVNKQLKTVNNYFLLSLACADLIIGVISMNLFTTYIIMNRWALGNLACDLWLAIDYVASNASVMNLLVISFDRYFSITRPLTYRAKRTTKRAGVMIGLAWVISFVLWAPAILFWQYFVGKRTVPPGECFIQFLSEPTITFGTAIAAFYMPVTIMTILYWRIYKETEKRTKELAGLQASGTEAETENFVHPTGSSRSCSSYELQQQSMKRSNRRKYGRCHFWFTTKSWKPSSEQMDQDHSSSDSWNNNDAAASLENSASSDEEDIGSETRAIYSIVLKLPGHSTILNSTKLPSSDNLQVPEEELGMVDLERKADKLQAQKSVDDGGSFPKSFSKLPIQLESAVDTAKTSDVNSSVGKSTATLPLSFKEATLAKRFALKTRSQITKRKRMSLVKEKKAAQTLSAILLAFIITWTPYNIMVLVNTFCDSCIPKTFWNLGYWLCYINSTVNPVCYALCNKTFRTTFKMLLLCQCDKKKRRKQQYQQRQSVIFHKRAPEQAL

## CC(C)OC(=O)CCC/C=C\C[C@@H]1[C@@H](CC[C@@H](O)CCc2ccccc2)[C@H](O)C[C@@H]1O [Latanoprost]
  yeast-expressed receptor NanoLuc screen at 10 uM, |Z-score| > 3: Latanoprost for mitigating increased intraoccular pressure may be partially explained by the observed interaction with CHRM3
